Measurements taken from patent US12577206B2 (BRISTOL-MYERS SQUIBB COMPANY, priority 2020, dated 2026).

What was measured:
[1] = target: T1, human FPR2 (Homo sapiens, UniProt P25090); test: FPR2 cyclic adenosine monophosphate (cAMP) assay; assay type: cell-based; settings: CHO cells overexpressing human FPR2; forskolin 5 μM; inhibition of cAMP production; HTRF; read-out: hFPR2 cAMP2 EC50
T1 sequence (P25090 1-351): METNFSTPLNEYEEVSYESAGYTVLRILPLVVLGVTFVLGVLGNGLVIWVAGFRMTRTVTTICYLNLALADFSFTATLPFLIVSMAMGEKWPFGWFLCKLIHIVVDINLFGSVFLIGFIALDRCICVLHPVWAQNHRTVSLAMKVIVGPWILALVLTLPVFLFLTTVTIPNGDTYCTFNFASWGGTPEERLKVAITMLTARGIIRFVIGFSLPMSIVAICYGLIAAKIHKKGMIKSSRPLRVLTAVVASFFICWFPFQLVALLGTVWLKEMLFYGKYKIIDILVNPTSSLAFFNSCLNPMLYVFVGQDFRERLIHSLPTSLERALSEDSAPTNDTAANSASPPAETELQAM
How it was run: (§1)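 CHO/hFPR1 4,000 cells/well, forskolin 10 μM final; CHO/hFPR2 2,000 cells/well, forskolin 5 μM final. IBMX 200 μM, DMSO 1%, DPBS + Ca/Mg + 0.1% BSA, 30 min rt. HTRF cAMP; 4-PL fit.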

[2] = target: T2, human FPR1 (Homo sapiens, UniProt P21462); test: FPR1 cyclic adenosine monophosphate (cAMP) assay; assay type: cell-based; settings: CHO cells overexpressing human FPR1; forskolin 10 μM; inhibition of cAMP production; HTRF; read-out: hFPR1 cAMP2 EC50
T2 sequence (P21462 1-350): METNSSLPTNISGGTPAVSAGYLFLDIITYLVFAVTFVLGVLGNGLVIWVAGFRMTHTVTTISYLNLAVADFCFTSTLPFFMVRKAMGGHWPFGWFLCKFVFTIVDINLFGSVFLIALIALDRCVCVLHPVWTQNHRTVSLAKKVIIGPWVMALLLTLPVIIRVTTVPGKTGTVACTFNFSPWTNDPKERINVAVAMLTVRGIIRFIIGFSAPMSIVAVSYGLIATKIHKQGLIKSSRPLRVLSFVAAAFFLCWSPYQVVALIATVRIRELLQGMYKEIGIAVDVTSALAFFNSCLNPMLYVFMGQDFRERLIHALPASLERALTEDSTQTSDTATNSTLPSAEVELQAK
How it was run: as §1

Row | EC50 [1] [nM] | EC50 [2] [nM] | SMILES
1 | 10 | > 10000 | COc1cc(F)c(-c2c(NC(=O)c3ccc(OC(F)F)cc3)c(=O)n(-c3cccc(N4CCOCC4)n3)n2C)c(F)c1 [Example 79, N-[5-(2,6-difluoro-4-methoxyphenyl)-1-methyl-2-[6-(morpholin-4-yl)pyridin-2-yl]-3-oxo-2,3-dihydro-1H-pyrazol-4-yl]-4-(difluoromethoxy)benzamide]
2 | 2 | 1300 | COc1cc(F)c(-c2c(NC(=O)c3ccc(OC(F)F)cc3)c(=O)n(-c3cccc(N4CCCCC4)n3)n2C)c(F)c1 [Example 80, N-[5-(2,6-difluoro-4-methoxyphenyl)-1-methyl-3-oxo-2-[6-(piperidin-1-yl)pyridin-2-yl]-2,3-dihydro-1H-pyrazol-4-yl]-4-(difluoromethoxy)benzamide]
3 | 17 | > 10000 | COc1cc(F)c(-c2c(NC(=O)c3ccc(OC(F)F)cc3)c(=O)n(-c3cccc(CO)n3)n2C)c(F)c1 [Example 81, N-[5-(2,6-difluoro-4-methoxyphenyl)-2-[6-(hydroxymethyl)pyridin-2-yl]-1-methyl-3-oxo-2,3-dihydro-1H-pyrazol-4-yl]-4-(difluoromethoxy)benzamide]
4 | 2 | 520 | COc1cc(F)c(-c2c(NC(=O)c3ccc(OC(F)F)cc3)c(=O)n(-c3cccc(N(C)C)n3)n2C)c(F)c1 [Example 82, N-[5-(2,6-difluoro-4-methoxyphenyl)-2-[6-(dimethylamino)pyridin-2-yl]-1-methy-3-oxo-2,3-dihydro-1H-pyrazol-4-yl]-4-(difluoromethoxy)benzamide]
5 | 2 | > 10000 | COc1cc(F)c(-c2c(NC(=O)c3ccc(OC(F)F)cc3)c(=O)n(-c3cccc(N4CCN(C)CC4)n3)n2C)c(F)c1 [Example 83, N-[5-(2,6-difluoro-4-methoxyphenyl)-1-methyl-2-[6-(4-methylpiperazin-1-yl)pyridin-2-yl]-3-oxo-2,3-dihydro-1H-pyrazol-4-yl]-4-(difluoromethoxy)benzamide]
6 | 5 | 82 | COc1cc(F)c(-c2c(NC(=O)c3ccc(OC(F)F)cc3)c(=O)n(-c3cccc(NC(=O)C(C)(C)C)n3)n2C)c(F)c1 [Example 84, N-[5-(2,6-difluoro-4-methoxyphenyl)-2-[6-(2,2-dimethylpropanamido)pyridin-2-yl]-1-methyl-3-oxo-2,3-dihydro-1H-pyrazol-4-yl]-4-(difluoromethoxy)benzamide]
7 | 5 | 750 | COc1cc(F)c(-c2c(NC(=O)c3ccc(OC(F)F)cc3)c(=O)n(-c3cccc(C(C)(C)O)n3)n2C)c(F)c1 [Example 85]
8 | 10 | 1400 | COc1cc(F)c(-c2c(NC(=O)c3ccc(OC(F)F)cc3)c(=O)n(-c3cccc(C(C)O)n3)n2C)c(F)c1 (stereo not drawn) [Example 86, N-[5-(2,6-difluoro-4-methoxyphenyl)-2-[6-(1-hydroxyethyl)pyridin-2-yl]-1-methyl-3-oxo-2,3-dihydro-1H-pyrazol-4-yl]-4-(difluoromethoxy)benzamide]
9 | 4 | 780 | COc1cc(F)c(-c2c(NC(=O)c3ccc(OC(F)F)cc3)c(=O)n(-c3cccc(C4(O)CCC4)n3)n2C)c(F)c1 [Example 87, N-(5-(2,6-difluoro-4-methoxyphenyl)-2-(6-(1-hydroxycyclobutyl)pyridin-2-yl)-1-methyl-3-oxo-2,3-dihydro-1H-pyrazol-4-yl)-4-(difluoromethoxy)benzamide]
10 | 2 | 6300 | COc1cc(C2CC2)nc(-n2c(=O)c(NC(=O)c3ccc(OC(F)F)cc3)c(-c3c(F)cc(OC)cc3F)n2C)c1 [Example 88, N-(2-(6-cyclopropyl-4-methoxypyridin-2-yl)-5-(2,6-difluoro-4-methoxyphenyl)-1-methyl-3-oxo-2,3-dihydro-1H-pyrazol-4-yl)-4-(difluoromethoxy)benzamide]
11 | 3 | 900 | COc1cc(-n2c(=O)c(NC(=O)c3ccc(OC(F)F)cc3)c(-c3c(F)cc(OC)cc3F)n2C)nc(C(C)(C)O)c1 [Example 89, N-[5-(2,6-difluoro-4-methoxyphenyl)-2-[6-(2-hydroxypropan-2-yl)-4-methoxypyridin-2-yl]-1-methyl-3-oxo-2,3-dihydro-1H-pyrazol-4-yl]-4-(difluoromethoxy)benzamide]
12 | 16 | 2100 | COc1cc(N2C[C@@H](C)O[C@@H](C)C2)nc(-n2c(=O)c(NC(=O)c3ccc(OC(F)F)cc3)c(-c3c(F)cc(OC)cc3F)n2C)c1 [Example 92, N-[5-(2,6-difluoro-4-methoxyphenyl)-2-{6-[(2R,6S)-2,6-dimethylmorpholin-4-yl]-4-methoxypyridin-2-yl}-1-methyl-3-oxo-2,3-dihydro-1H-pyrazol-4-yl]-4-(difluoromethoxy)benzamide]
13 | 2 | 1800 | COc1cc(N2C[C@@H](C)N(C)[C@@H](C)C2)nc(-n2c(=O)c(NC(=O)c3ccc(OC(F)F)cc3)c(-c3c(F)cc(OC)cc3F)n2C)c1 [Example 93, N-[5-(2,6-difluoro-4-methoxyphenyl)-2-{4-methoxy-6-[(3R,5S)-3,4,5-trimethylpiperazin-1-yl]pyridin-2-yl}-1-methyl-3-oxo-2,3-dihydro-1H-pyrazol-4-yl]-4-(difluoromethoxy)benzamide]
14 | 3 | 3400 | COc1cc(N2CC[C@H](O)C2)nc(-n2c(=O)c(NC(=O)c3ccc(OC(F)F)cc3)c(-c3c(F)cc(OC)cc3F)n2C)c1 [Example 97, N-[5-(2,6-difluoro-4-methoxyphenyl)-2-{6-[(3S)-3-hydroxypyrrolidin-1-yl]-4-methoxypyridin-2-yl}-1-methyl-3-oxo-2,3-dihydro-1H-pyrazol-4-yl]-4-(difluoromethoxy)benzamide]
15 | 2 | 1600 | COc1cc(-n2c(=O)c(NC(=O)c3ccc(OC(F)F)cc3)c(-c3c(F)cc(OC)cc3F)n2C)nc(C2(O)CCC2)c1 [Example 100, N-[5-(2,6-difluoro-4-methoxyphenyl)-2-[6-(1-hydroxycyclobutyl)-4-methoxypyridin-2-yl]-1-methyl-3-oxo-2,3-dihydro-1H-pyrazol-4-yl]-4-(difluoromethoxy)benzamide]
16 | 2 | 1000 | COc1cc(F)c(-c2c(NC(=O)c3ccc(OC(F)F)cc3)c(=O)n(-c3cccc(N4CC[C@H](O)C4)n3)n2C)c(F)c1 [Example 102, N-[5-(2,6-difluoro-4-methoxyphenyl)-2-{6-[(3S)-3-hydroxypyrrolidin-1-yl]pyridin-2-yl}-1-methyl-3-oxo-2,3-dihydro-1H-pyrazol-4-yl]-4-(difluoromethoxy)benzamide]
17 | 3 | 6200 | COc1cc(F)c(-c2c(NC(=O)c3ccc(OC(F)F)cc3)c(=O)n(-c3cccc(N4CC(F)(F)C4)n3)n2C)c(F)c1 [Example 104, N-[5-(2,6-difluoro-4-methoxyphenyl)-2-[6-(3,3-difluoroazetidin-1-yl)pyridin-2-yl]-1-methyl-3-oxo-2,3-dihydro-1H-pyrazol-4-yl]-4-(difluoromethoxy)benzamide]
18 | 11 | 8100 | COc1cc(F)c(-c2c(NC(=O)c3ccc(OC(F)F)cc3)c(=O)n(-c3cc(C)cc(C)c3)n2C)c(F)c1 [Example 109, N-[5-(2,6-difluoro-4-methoxyphenyl)-2-(3,5-dimethylphenyl)-1-methyl-3-oxo-2,3-dihydro-1H-pyrazol-4-yl]-4-(difluoromethoxy)benzamide]
